These results are taken from patent US20100063020A1, “ORAL PHARMACEUTICAL FORMULATIONS AND METHODS FOR PRODUCING AND USING SAME” (priority 2004, published 2010).

A short description of this data set: Mouse serum pharmacokinetics of low melt 17-AAG in phospholipids. The data set is classed as in vivo. As to conditions: Balb/C mice; for 17-AG AUCobs / 17-AG Cmax: metabolite 17-AG. On the procedure:
Blood was collected at predetermined intervals and the serum was isolated.
Six to 8 week old Balb/C mice were obtained from Harlan Sprague Dawley (Indianapolis, Ind.). The mice were maintained in sterilized filter topped cages or ventilated caging in a room with a 12 h light/12 h dark photoperiod at temperature of 21-23° C. and a relative humidity of 50±5%. Irradiated pelleted food (Harlan Teklad #7912) and autoclaved deionized water were provided ad libitum. Experiments were carried out under institutional guidelines for the proper and humane use of animals in research established by the Institute for Laboratory Animal Research (ILAR).
Drug solutions were prepared and the concentrations were adjusted so that mice received a dose of 2-15 ml/kg administered intravenously (I.V.) as a bolus, orally, or intra-peritoneally (I.P.). […] In I.V. studies blood was sampled at 1, 5, 15, 30, 90 and 120 min. In oral and I.P. studies blood was sampled at 5, 15, 30, 90, 180 minutes and in some cases up to 240 minutes. Blood was collected in capillary tubes, transferred to microcentrifuge tubes, allowed to clot and centrifuged at 14,000 g for 10 minutes at 4° C. to obtain serum.

Where [1] appears, read: PO 40 mg/kg, lipid complex, low melt form.

Regarding `C=CCNC1=C2C[C@@H](C)C[C@H](OC)[C@H](O)[C@@H](C)/C=C(\C)[C@H](OC(N)=O)[C@@H](OC)/C=C\C=C(/C)C(=O)NC(=CC1=O)C2=O` [Compound 17-AAG, 17-allylamino-17-demethoxygeldanamycin], the “17-AAG AUCobs” value is, setting by setting: (IP 40 mg/kg, vehicle PMSE) 1596 µg·min/mL; (IV 40 mg/kg, vehicle PET) 1752 µg·min/mL; under setting [1], 953 µg·min/mL. Besides, the “17-AAG Cmax” value (IP 40 mg/kg, vehicle PMSE) was determined as 11800 ng/mL; the “17-AAG Cmax” value (IV 40 mg/kg, vehicle PET) was determined as 54500 ng/mL; the “17-AAG Cmax” value under setting [1] turned out to be 7500 ng/mL. The “17-AG AUCobs” value by setting is: (IP 40 mg/kg, vehicle PMSE) 655 µg·min/mL; (IV 40 mg/kg, vehicle PET) 595 µg·min/mL; (PO 40 mg/kg, lipid complex) 532 µg·min/mL. Further, the “17-AG Cmax” value was 5800 ng/mL (IP 40 mg/kg, vehicle PMSE); 6200 ng/mL (IV 40 mg/kg, vehicle PET); 4500 ng/mL (PO 40 mg/kg, lipid complex). For the setting “IP 40 mg/kg, vehicle PMSE, relative to IV 40 mg/kg”, the “% F” value stood at 91%. Also, where the note is “IP 40 mg/kg, vehicle PMSE, 17-AAG and 17-AG relative to IV dose”, the “Total Absorption” value came out at 96%.
